Read-outs that look alike come from different tables or passages of the source.
Legend:
[1] = target: human recombinant GCL (Homo sapiens (Human), UniProt P48506); assay: GCL enzyme profiling assay (ADP-Glo luminescence); format: biochemical; conditions: read-out: GCL IC50
Summary of the method: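 IC50 fitted by four-parameter logistic to luminescent ADP formation (ADP-Glo). Reaction at room temperature in HEPES pH 7.5 with 30 mM MgCl2, 0.2% F-127, 1% DMSO; 5 nM GCL and 0.6 mM ATP preincubated 1 h before adding 1 mM glutamate plus 1.2 mM α-aminobutyrate for 2 h.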

[2] = tested on: RKN cells; assay: RKN cell profiling assay (cell viability, CellTiter-Glo); format: cell-based; conditions: read-out: Cell Killing EC50
Summary of the method: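 Viability read by CellTiter-Glo luminescence after 96 h compound exposure (0.5% DMSO final) of cells plated at 1,000/well in 10% FBS F-12 and allowed 24 h attachment. Four-parameter fits gave EC50; rescue arms used ferrostatin-1, 1.5 μM, present from seeding.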

[3] = human recombinant GCL 5 nM, 1 h preincubation with ATP

Chain of human recombinant GCL (P48506 whole entry): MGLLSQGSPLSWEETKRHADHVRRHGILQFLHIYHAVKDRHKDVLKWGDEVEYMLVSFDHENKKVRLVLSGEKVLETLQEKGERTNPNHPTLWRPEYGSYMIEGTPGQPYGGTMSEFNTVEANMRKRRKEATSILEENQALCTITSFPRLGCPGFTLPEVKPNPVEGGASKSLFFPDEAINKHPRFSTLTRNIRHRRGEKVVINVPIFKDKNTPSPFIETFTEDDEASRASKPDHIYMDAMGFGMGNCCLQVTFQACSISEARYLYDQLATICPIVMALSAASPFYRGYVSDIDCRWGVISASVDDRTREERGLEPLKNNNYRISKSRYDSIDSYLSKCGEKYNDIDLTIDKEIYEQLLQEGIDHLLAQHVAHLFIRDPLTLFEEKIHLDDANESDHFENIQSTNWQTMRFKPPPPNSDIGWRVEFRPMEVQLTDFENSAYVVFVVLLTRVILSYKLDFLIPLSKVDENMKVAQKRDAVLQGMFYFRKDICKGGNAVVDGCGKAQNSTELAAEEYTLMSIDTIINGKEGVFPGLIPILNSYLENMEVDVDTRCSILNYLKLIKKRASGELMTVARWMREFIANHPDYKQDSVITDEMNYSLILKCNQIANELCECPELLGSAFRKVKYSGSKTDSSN

## COC(C)(C)CCS(=N)(=O)CC[C@H](N)C(=O)O (some centres unmarked) [Compound 158]
[1]; [3]
  IC50: 20 to 2000 µM
[2]; 96 h, 96 h exposure
  EC50: < 1000 µM

## N=S(=O)(CC[C@H](N)C(=O)O)CCC(O)(C1CCN(c2ccc(Cl)cc2Cl)CC1)C(F)(F)F (some centres unmarked) [Compound 379]
[1]; human recombinant GCL, ADP-Glo
  IC50: ≤ 20 µM
[2]; cell viability
  EC50: < 1000 µM

## N=S(=O)(CCc1ccc(Cl)c(Cl)c1)CC[C@H](N)C(=O)O (some centres unmarked) [Compound 13]
[1]; [3]
  IC50: ≤ 20 µM
[2]; 96 h, 96 h exposure
  EC50: ≥ 1000 µM

## CC(C)(N)CCS(=N)(=O)CC[C@H](N)C(=O)O (some centres unmarked) [Compound 183]
[1]; [3]
  IC50: > 2000 µM
[2]; 96 h, 96 h exposure
  EC50: ≥ 1000 µM

## CCCCS(=N)(=O)CC[C@H](N)C(=O)NCC(N)=O (some centres unmarked) [Compound 112]
[1]; [3]
  IC50: 20 to 2000 µM
[2]; 96 h, 96 h exposure
  EC50: ≥ 1000 µM

## N=S(=O)(CC[C@H](N)C(=O)O)CCC(O)(c1ccc(C(F)(F)F)nc1)C(F)(F)F (some centres unmarked) [Compound 365]
[1]; human recombinant GCL, ADP-Glo
  IC50: 20 to 2000 µM
[2]; cell viability
  EC50: ≥ 1000 µM

## N=S(=O)(CC[C@H](N)C(=O)O)CCC(O)(c1ccccc1Cl)C(F)(F)F (stereo partly drawn) [Compound 209, (2S)-2-amino-4-(3-(2-chlorophenyl)-4,4,4-trifluoro-3-hydroxybutylsulfonimidoyl)butanoic acid]
[1]; [3]
  IC50: ≤ 20 µM
[2]; 96 h, 96 h exposure
  EC50: < 1000 µM

## N=S(=O)(CC[C@H](N)C(=O)O)CCC1(C(=O)Nc2ccccc2)CCC1 (some centres unmarked) [Compound 195]
[1]; [3]
  IC50: 20 to 2000 µM
[2]; 96 h, 96 h exposure
  EC50: ≥ 1000 µM

## COCC(C)(C)CCS(=N)(=O)CC[C@H](N)C(=O)O (some centres unmarked) [Compound 321]
[1]; human recombinant GCL, ADP-Glo
  IC50: 20 to 2000 µM
[2]; cell viability
  EC50: < 1000 µM

## Cc1cc(Cl)ccc1-c1ccc(C(O)(CCS(=N)(=O)CC[C@H](N)C(=O)O)C(F)(F)F)nc1 (some centres unmarked) [Compound 478]
[1]; human recombinant GCL, ADP-Glo
  IC50: ≤ 20 µM
[2]; cell viability
  EC50: < 1000 µM

## CC(C)(C)[C@@H](N)CS(=N)(=O)CC[C@H](N)C(=O)O (some centres unmarked) [Compound 147]
[1]; [3]
  IC50: > 2000 µM
[2]; 96 h, 96 h exposure
  EC50: ≥ 1000 µM

## N=S(=O)(CCc1cnoc1)CC[C@H](N)C(=O)O (some centres unmarked) [Compound 9]
[1]; [3]
  IC50: 20 to 2000 µM
[2]; 96 h, 96 h exposure
  EC50: < 1000 µM

## CC(=O)Nc1ccc(C(O)(CCS(=N)(=O)CC[C@H](N)C(=O)O)C(F)(F)F)cc1 (some centres unmarked) [compound 506]
[1]; human recombinant GCL, ADP-Glo
  IC50: 20 to 2000 µM
[2]; cell viability
  EC50: < 1000 µM

## N=S(=O)(CC[C@H](N)C(=O)O)CCC1(c2ccc(-c3ccc(Cl)cc3Cl)cc2)CCC1 (some centres unmarked) [Compound 402]
[1]; human recombinant GCL, ADP-Glo
  IC50: ≤ 20 µM
[2]; cell viability
  EC50: < 1000 µM

## COC(=O)[C@@H](N)CCS(=N)(=O)CCC1CCCC1 (some centres unmarked) [Compound 74]
[1]; [3]
  IC50: 20 to 2000 µM
[2]; 96 h, 96 h exposure
  EC50: < 1000 µM

## COC(CCS(=N)(=O)CC[C@H](N)C(=O)O)C(F)(F)F (some centres unmarked) [Compound 155]
[1]; [3]
  IC50: ≤ 20 µM
[2]; 96 h, 96 h exposure
  EC50: < 1000 µM

## Cc1ccc(C(=O)O)cc1CCS(=N)(=O)CC[C@H](N)C(=O)O (some centres unmarked) [Compound 41]
[1]; [3]
  IC50: 20 to 2000 µM
[2]; 96 h, 96 h exposure
  EC50: ≥ 1000 µM

## COc1ccccc1CCS(=N)(=O)CC[C@H](N)C(=O)O (some centres unmarked) [Compound 20]
[1]; [3]
  IC50: 20 to 2000 µM
[2]; 96 h, 96 h exposure
  EC50: ≥ 1000 µM

## N=S(=O)(CCC(n1ncc(-c2ccccn2)n1)C(F)(F)F)CC[C@H](N)C(=O)O (some centres unmarked) [Compound 407]
[1]; human recombinant GCL, ADP-Glo
  IC50: ≤ 20 µM
[2]; cell viability
  EC50: ≥ 1000 µM

## N=S(=O)(CCC1CCCC1(F)F)CC[C@H](N)C(=O)O (some centres unmarked) [Compound 180]
[1]; [3]
  IC50: ≤ 20 µM
[2]; 96 h, 96 h exposure
  EC50: ≥ 1000 µM

## CC(C)(CCS(=N)(=O)CC[C@H](N)C(=O)O)C(F)(F)F (some centres unmarked) [Compound 152]
[1]; [3]
  IC50: 20 to 2000 µM
[2]; 96 h, 96 h exposure
  EC50: < 1000 µM

## N=[S@SP2](=O)(CCC(N)C(=O)O)CCC(c1ccccc1)(C(F)(F)F)C(F)(F)F (centres unmarked) [compound 508]
[1]; human recombinant GCL, ADP-Glo
  IC50: 20 to 2000 µM
[2]; cell viability
  EC50: ≥ 1000 µM

## N=S(=O)(CCc1ccc(F)c(F)c1)CC[C@H](N)C(=O)O (some centres unmarked) [Compound 5]
[1]; [3]
  IC50: ≤ 20 µM
[2]; 96 h, 96 h exposure
  EC50: ≥ 1000 µM

## CCCC(C)(C)OC(=O)[C@@H](N)CCS(=N)(=O)CCCC(F)(F)F (some centres unmarked) [Compound 89]
[1]; [3]
  IC50: > 2000 µM
[2]; 96 h, 96 h exposure
  EC50: < 1000 µM

## N=S(=O)(CCC(c1ccc(-c2cncc(F)c2)cc1)C(F)(F)F)CC[C@H](N)C(=O)O (some centres unmarked) [Compound 247]
[1]; human recombinant GCL, ADP-Glo
  IC50: ≤ 20 µM
[2]; cell viability
  EC50: ≥ 1000 µM

## N=S(=O)(CCC1CCC1)CC[C@H](N)C(=O)O (some centres unmarked) [Compound 165]
[1]; [3]
  IC50: ≤ 20 µM
[2]; 96 h, 96 h exposure
  EC50: < 1000 µM

## N=S(=O)(CCC(n1cccn1)C(F)(F)F)CC[C@H](N)C(=O)O (some centres unmarked) [Compound 411]
[1]; human recombinant GCL, ADP-Glo
  IC50: 20 to 2000 µM
[2]; cell viability
  EC50: < 1000 µM

## CC(C)(C)CCS(=N)(=O)CC[C@H](N)C(=O)NC1COC1 (some centres unmarked) [Compound 129]
[1]; [3]
  IC50: > 2000 µM
[2]; 96 h, 96 h exposure
  EC50: < 1000 µM

From US20260034094A1, “COMPOSITIONS AND METHODS FOR INDUCING FERROPTOSIS” (Kojin Therapeutics, Inc., priority 2022, published 2026)
